The term ED50 denotes the midpoint of the dose-response relation. The term melting point denotes the temperature of the solid-liquid transition. One may read the Emax as the size of the effect at its maximum, as opposed to the concentration needed.

The values below come from US10106542B2, “Substituted 6,7-dihydropyrazolo[1,5-a]pyrazines as negative allosteric modulators of mGluR2 receptors” (Janssen Pharmaceutica NV, priority 2013, dated 2018).

In series [1] the test system is Wiga rats. Description: Reserpine interaction test in rats. To be noted: for ED50: Rattus norvegicus, po, Time 60, reserpine 10 mg/kg SC, Wiga rats, read-out: ED50, reversal of reserpine-induced ptosis. Format: in vivo, rat. As for the experimental part: 4) Reserpine Interaction Test in Rats
It was investigated to what extent the mydriatic action of test compounds was sufficient to counteract the miosis induced by the monoamines-depleting agent reserpine (10 mg/kg; SC) in Wiga rats.
The effects are illustrated in FIG. 3. […] The reference mGlu2 NAMs RO-4995819 (40 mg/kg, p.o.), RO-4491533 (40 mg/kg, p.o.; 10 mg/kg, s.c.) and [CAS 579473-69-1]

The target in series [2] is T1, human mGlu2 receptor (Homo sapiens, UniProt Q14416).
T1 construct: expressed in transfected cells; host or cells: CHO cells (membrane preparation)
T1 sequence (Q14416 19-872): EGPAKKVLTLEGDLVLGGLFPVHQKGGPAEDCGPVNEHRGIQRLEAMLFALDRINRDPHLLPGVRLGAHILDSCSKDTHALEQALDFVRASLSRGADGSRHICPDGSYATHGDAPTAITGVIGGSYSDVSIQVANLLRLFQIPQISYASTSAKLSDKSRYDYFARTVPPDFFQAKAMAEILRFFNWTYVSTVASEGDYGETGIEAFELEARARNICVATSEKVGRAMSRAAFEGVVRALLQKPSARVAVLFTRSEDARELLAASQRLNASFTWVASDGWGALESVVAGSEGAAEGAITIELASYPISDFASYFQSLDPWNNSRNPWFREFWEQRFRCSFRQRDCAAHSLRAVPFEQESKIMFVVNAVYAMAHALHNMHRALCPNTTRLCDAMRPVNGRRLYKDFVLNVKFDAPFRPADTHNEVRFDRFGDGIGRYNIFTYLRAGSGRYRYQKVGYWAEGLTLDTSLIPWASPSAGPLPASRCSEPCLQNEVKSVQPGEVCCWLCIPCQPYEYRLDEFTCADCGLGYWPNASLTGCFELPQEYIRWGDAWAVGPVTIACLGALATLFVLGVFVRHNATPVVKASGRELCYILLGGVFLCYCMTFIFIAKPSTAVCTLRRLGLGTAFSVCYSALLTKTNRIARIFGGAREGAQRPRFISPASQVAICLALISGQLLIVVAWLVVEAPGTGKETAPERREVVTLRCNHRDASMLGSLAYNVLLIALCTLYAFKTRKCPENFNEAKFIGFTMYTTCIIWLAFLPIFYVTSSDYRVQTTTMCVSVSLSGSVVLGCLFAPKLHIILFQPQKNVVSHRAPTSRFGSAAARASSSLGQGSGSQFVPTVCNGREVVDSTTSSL
The series is described as follows: [35S]GTPγS binding assay (mGluR2 negative allosteric modulation). In kind it is biochemical. To be noted: for IC50: read-out: GTPγS - hmGluR2 anGT pIC50 (converted); for Emax: relative maximal effect: maximal % inhibition relative to the control glutamate response, read-out: GTPγS - hmGluR2 anGT Emax. A digest of the protocol: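 Membranes from butyrate-stimulated CHO cells expressing human mGlu2; 7 μg protein in HEPES pH 7.4, 100 mM NaCl, 3 mM MgCl2, 10 μM GDP, 10 μg/ml saponin. Compound tested against EC80-equivalent glutamate; 0.1 nM [35S]GTPγS, 30 min, 30 °C; filtration, scintillation counting. Data as % of control glutamate response.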

In series [3] the test system is rats. The series is described as follows: Reversal of the effect of the mGluR2 PAM JNJ-42153605 on scopolamine-induced hyperlocomotion. As to conditions: Rattus norvegicus, 1 h, test compound 60 min before recording, criterion total distance >1500 cm. Format: in vivo. Here is the method:
2) Reversal of the Effect of the mGluR2 PAM JNJ-42153605 on Scopolamine-Induced Hyperlocomotion Apparatus
Motor activity was measured in microprocessor-based motor activity arenas (closed gray PVC cylinders with a height of 39 cm and a diameter of 31 cm). Each arena was placed on an infrared LED (8×8 LEDs) lit box (white PVC squared box; 40×40 cm^2; height 12.5 cm. An infrared-sensitive tube camera and a white light source were mounted to the ceiling above the observation chamber to track the animal. The total distance traveled (cm) was recorded and analyzed using the Noldus Ethovision XT Video Tracking System (Version 7.0.418; Noldus, Wageningen, The Netherlands). The intensity of the light within the activity cages (measured in the centre at the level of the floor) ranged between 4 and 8 LUX.
The rats were pretreated with test compound or vehicle at 60 min before the start of the activity recordings and placed into individual cages. The rats were challenged with JNJ-42153605 (3-(cyclopropylmethyl)-7-(4-phenylpiperidin-1-yl)-8-(trifluoromethyl)[1,2,4]triazolo[4,3-a]pyridine; WO2010/130424; Cid et al. J. Med. Chem. 2012, 55, 8770-8789) (20 mg/kg, i.v.) 30 min before the start of the activity recording combined with scopolamine (0.16 mg/kg, i.v.) just before the start of the activity measurements Immediately after the injection of scopolamine, the rats were placed into the activity monitors and total distance travelled over the first 30 min was measured.
Animals receiving the combination of JNJ-42153605 and scopolamine (n=433) almost always travelled a distance of less than 1500 cm (<1500 cm) (only 2.5% of the control rats travelled a distance of more than 1500 cm (>1500 cm)). On the other hand, animals challenged with scopolamine alone (n=215) always travelled a total distance of more than 1500 cm (>1500 cm) and almost always (in 95.8% of the rats) a distance of more than 4400 cm (>4400 cm). […] For reversal of the inhibitory effect of JNJ-42153605 on the scopolamine-induced hyperlocomotion, two all-or-none criteria were adopted: (1) reversal: total distance >1500 cm; (2) normalization: total distance >4400 cm.

Setting [4] is: membranes from CHO cells transfected with human mGlu2 receptor, glutamate 60 μM, pIC50 = −log IC50 (M).

On to `Cc1ccc(N2C[C@H](C)n3ncc(-c4ccnc(C)c4)c3C2=O)cc1` [compound 78], for which the ED50 in series [1] was not below 10 mg/kg.
As for `Cc1cncc(-c2cnn3c2C(=O)N(c2ccc(C(F)(F)F)cc2)C[C@@H]3C)c1` [compound 24], the ED50 in series [1] is not below 10 mg/kg.
Turning to `Cc1ccc(-c2cnn3c2C(=O)N(c2ccc(C(F)(F)F)cc2)C[C@@H]3C)cn1` [compound 36], the melting point amounted to 128.2 °C. The IC50 in series [2] (setting [4]) was 8.32e-07 M. Further, in series [2], the Emax was 100%. Also, the median effective dose (ED50) in series [1] was 5 mg/kg.
`Cc1cc(-c2cccc(C3=Nc4cc(C)c(C(F)(F)F)cc4NC(=O)C3)c2)cc(C)n1` [RO-4491533, reference compound]: the “interactions with reserpine (mydriasis, reversal of ptosis, miosis, sedation)” value in series [1] (10 mg/kg, s.c.) is “devoid of these interactions with reserpine”; in series [1] (40 mg/kg, p.o.), “devoid of these interactions with reserpine”.
As for `CCOc1cccc(N2C[C@H](C)n3ncc(-c4ccnc(C)c4)c3C2=O)c1` [compound 83], the IC50 in series [2] (setting [4]) was 7.94e-07 M. For the same compound, in series [2], the Emax is 104%. Further, in series [1], the ED50 worked out at 5 mg/kg.
Consider `CCOc1nc(N2C[C@H](C)n3ncc(-c4ccnc(C)c4)c3C2=O)ccc1C(F)(F)F` (single isomer, unassigned) [compound 200], for which the melting point came out at 122.3 °C. Further, the IC50 in series [2] (setting [4]) was 5.89e-09 M. The Emax in series [2] worked out at 105%. For the same compound, the median effective dose (ED50) in series [3] (Route PO) turned out to be 3.15 mg/kg. The median effective dose (ED50) in series [1] is 0.13 mg/kg.
`COc1c(C)cc(N2C[C@H](C)n3ncc(-c4ccnc(C)c4)c3C2=O)cc1C` [compound 34] yielded a melting point of more than 300 °C. Besides, the IC50 in series [2] (setting [4]) is 5.62e-07 M. Further, in series [2], the maximal response (Emax) stood at 100%. Also, the ED50 in series [1] amounted to 0.8 mg/kg.
In the case of `Cc1cc(-c2cnn3c2C(=O)N(c2cc(F)cc(F)c2)C[C@@H]3C)ccn1` [compound 82], the IC50 in series [2] (setting [4]) was 6.31e-07 M. Moreover, the Emax in series [2] turned out to be 101%. Besides, in series [1], the 50% effective dose (ED50) worked out at 5 mg/kg.
For the compound `COCc1cc(-c2cnn3c2C(=O)N(c2ccc(C(F)(F)F)cc2)C[C@@H]3C)ccn1` [compound 22], in series [2] (setting [4]), the IC50 was 6.92e-08 M. For the same compound, the Emax in series [2] was 104%. Also, the ED50 in series [1] is 0.13 mg/kg.
In the case of `COc1ccc(N2C[C@H](C)n3ncc(-c4ccnc(C)c4)c3C2=O)cc1F` [compound 35], the IC50 in series [2] (setting [4]) is 6.03e-07 M. Besides, the Emax in series [2] came to 100%. The ED50 in series [1] was more than 10 mg/kg.
Regarding `CCOc1ccc(N2C[C@H](C)n3ncc(-c4ccnc(C)c4)c3C2=O)cc1.Cl` [compound 81, (7S)-5-(4-Ethoxyphenyl)-7-methyl-3-(2-methyl-4-pyridyl)-6,7-dihydropyrazolo[1,5-a]pyrazin-4-one hydrochloride salt], the IC50 in series [2] (setting [4]) was 5.37e-07 M. Also, the maximal effect (Emax) in series [2] worked out at 103%. Further, the median effective dose (ED50) in series [1] worked out at 5 mg/kg.
With `Cc1cc(-c2cnn3c2C(=O)N(c2ccc(C(F)(F)F)cc2)CC3)ccn1` [compound 40], the melting point came out at 137 °C. For the same compound, in series [2] (setting [4]), the IC50 was 1.48e-06 M. Further, the Emax in series [2] was found to be 105%. Moreover, the ED50 in series [1] was found to be 0.32 mg/kg.
With `COc1ccc(N2C[C@H](C)n3ncc(-c4ccnc(C)c4)c3C2=O)cc1OC` [compound 41], the melting point amounted to 166.9 °C. The IC50 in series [2] (setting [4]) is 3.55e-06 M. Further, the maximal response (Emax) in series [2] worked out at 95%. Moreover, the ED50 in series [1] came to 3.15 mg/kg.
Regarding `Cc1cc(-c2cnn3c2C(=O)N(c2cccc(C(C)O)c2)C[C@@H]3C)ccn1` (stereo partly drawn) [compound 148], the melting point amounted to 149.7 °C. In series [2] (setting [4]), the IC50 is 5.62e-06 M. Besides, the maximum response (Emax) in series [2] turned out to be 100%. In addition, the 50% effective dose (ED50) in series [1] stood at 1.99 mg/kg.
Turning to `Nc1ccc(C#Cc2cnn3c(C(F)(F)F)cc(-c4ccc(C(F)(F)F)cc4)nc23)cn1` [RO-4995819, reference compound], the “interactions with reserpine (mydriasis, reversal of ptosis, miosis, sedation)” value in series [1] (40 mg/kg, p.o.) is on record as “devoid of these interactions with reserpine”.
`CCOc1nc(N2C[C@H](C)n3ncc(-c4ccnc(C)c4)c3C2=O)ccc1Cl` [compound 201] had a melting point of 119.7 °C. Also, the IC50 in series [2] (setting [4]) is 8.32e-09 M. Besides, in series [2], the maximal response (Emax) worked out at 105%. Also, the ED50 in series [3] (Route PO) is more than 2.5 mg/kg.
For the compound `Cc1cc(-c2cnn3c2C(=O)N(c2ccc(C(F)(F)F)c(C#N)c2)C[C@@H]3C)ccn1` [compound 13], the melting point was 128.9 °C. Besides, in series [2] (setting [4]), the IC50 was 2.95e-08 M. The Emax in series [2] turned out to be 103%. In series [3] (Route PO), the 50% effective dose (ED50) was found to be 7.94 mg/kg.
As to `COc1ccc(N2C[C@H](C)n3ncc(-c4ccnc(C)c4)c3C2=O)cc1` [compound 38], the IC50 in series [2] (setting [4]) was 9.55e-07 M. The Emax in series [2] came out at 103%. For the same compound, the 50% effective dose (ED50) in series [1] amounted to 5 mg/kg.
For `C[C@H]1CN(c2ccc(C(F)(F)F)c(Cl)c2)C(=O)c2c(-c3ccnc(C#N)c3)cnn21` [compound 100], the melting point amounted to 144.9 °C. The “GTPγS - hmGluR2 anGT pIC50” value in series [2] (setting [4]) is recorded as 8.16. The Emax in series [2] is 109%. The ED50 in series [3] (Route PO) is more than 10 mg/kg.
With `COc1cc(N2C[C@H](C)n3ncc(-c4ccnc(C)c4)c3C2=O)ccc1Cl` [compound 19], the melting point was determined as 137 °C. The IC50 in series [2] (setting [4]) was 6.92e-08 M. The maximum response (Emax) in series [2] turned out to be 105%. Besides, in series [3] (Route PO), the ED50 is not below 10 mg/kg.
Turning to `Cc1cc(-c2cnn3c2C(=O)N(c2cccc(OC(C)C)c2)C[C@@H]3C)ccn1` [compound 79], the IC50 in series [2] (setting [4]) is 5.13e-07 M. In addition, the Emax in series [2] amounted to 104%. The ED50 in series [1] came out at 5 mg/kg.
On to `C[C@H]1CN(c2ccc(C(F)(F)F)cc2)C(=O)c2c(-c3ccnc(C(F)(F)F)c3)cnn21` [compound 99], for which the melting point amounted to 126.4 °C. In series [2] (setting [4]), the IC50 is 1.45e-08 M. In addition, in series [2], the maximal effect (Emax) came out at 108%. In addition, the ED50 in series [3] (Route PO) is not below 2.5 mg/kg.
As to `Cc1cc(-c2cnn3c2C(=O)N(c2ccc(C#N)cc2)C[C@@H]3C)ccn1` [compound 80], the ED50 in series [1] was more than 2.5 mg/kg.
`Cc1cc(-c2cnn3c2C(=O)N(c2ccc(Cl)c(C(F)(F)F)c2)C[C@@H]3C)ccn1` [compound 9]: the melting point was 143.6 °C. The IC50 in series [2] (setting [4]) is 1.05e-08 M. Besides, the Emax in series [2] was 103%. The 50% effective dose (ED50) in series [3] (Route PO) was not below 2.5 mg/kg.
Compound `C[C@H]1CN(c2ccc(C(F)(F)F)cc2)C(=O)c2c(-c3ccnc(N(C)C)c3)cnn21` [compound 166] had a melting point of 99.8 °C. Besides, in series [2] (setting [4]), the IC50 was 2.51e-09 M. In series [2], the Emax came to 102%. Also, in series [3] (Route PO), the ED50 is 0.5 mg/kg. The ED50 in series [3] (Route SC) was not below 10 mg/kg.
